# Laboratory results as given in the supplement of paper PMC13380429.
# Key:
# Details in all cases: 72 h
# Calu-3 [1] = experiment: drug sensitivity score (DSS) for viability; higher = more toxic; extreme values may be limits of the assay
# Vero E6 [2] = experiment: as above
# Caco-2 [3] = experiment: as above
# HepG2 [4] = experiment: as above
# U2OS [5] = experiment: as above
# Calu-3 [6] = experiment: cell viability relative to DMSO; higher = less toxic
# Vero E6 [7] = experiment: as above
# Caco-2 [8] = experiment: as above
# HepG2 [9] = experiment: as above
# U2OS [10] = experiment: as above
# Calu-3 [11] = experiment: relative viability EC50 (midpoint between 100% and the lowest measured viability); higher = less toxic
# Caco-2 [12] = experiment: as above
# HepG2 [13] = experiment: as above
# U2OS [14] = experiment: as above
# Vero E6 [15] = experiment: as above
SMILES,drug sensitivity score (Calu-3 [1]),drug sensitivity score (Vero E6 [2]),drug sensitivity score (Caco-2 [3]),drug sensitivity score (HepG2 [4]),drug sensitivity score (U2OS [5]),cell viability (Calu-3 [6]; 1 nM) [%],cell viability (Calu-3 [6]; 10 nM) [%],cell viability (Calu-3 [6]; 100 nM) [%],cell viability (Calu-3 [6]; 1000 nM) [%],cell viability (Calu-3 [6]; 10000 nM) [%],cell viability (Vero E6 [7]; 1 nM) [%],cell viability (Vero E6 [7]; 10 nM) [%],cell viability (Vero E6 [7]; 100 nM) [%],cell viability (Vero E6 [7]; 1000 nM) [%],cell viability (Vero E6 [7]; 10000 nM) [%],cell viability (Caco-2 [8]; 1 nM) [%],cell viability (Caco-2 [8]; 10 nM) [%],cell viability (Caco-2 [8]; 100 nM) [%],cell viability (Caco-2 [8]; 1000 nM) [%],cell viability (Caco-2 [8]; 10000 nM) [%],cell viability (HepG2 [9]; 1 nM) [%],cell viability (HepG2 [9]; 10 nM) [%],cell viability (HepG2 [9]; 100 nM) [%],cell viability (HepG2 [9]; 1000 nM) [%],cell viability (HepG2 [9]; 10000 nM) [%],cell viability (U2OS [10]; 1 nM) [%],cell viability (U2OS [10]; 10 nM) [%],cell viability (U2OS [10]; 100 nM) [%],cell viability (U2OS [10]; 1000 nM) [%],cell viability (U2OS [10]; 10000 nM) [%],relative viability EC50 (Calu-3 [11]) [µM],relative viability EC50 (Caco-2 [12]) [µM],relative viability EC50 (HepG2 [13]) [µM],relative viability EC50 (U2OS [14]) [µM],relative viability EC50 (Vero E6 [15]) [µM]
CCn1nc(C2CCN(C(=O)CCO)CC2)nc1-c1cnc(N)c(-c2nnc(C(C)(C)C)o2)n1 [AZD8835],5.9,2,3.2,4.1,2.8,102,96.3,99.1,81.4,41.8,96.9,97.9,93.7,96,70,94.1,93.6,91.3,86.6,64.3,101,101,95.1,78.7,64,102,97.5,99,85.2,70.5,1.35,,,,
c1ccc2nc(C3=NCCN3)cnc2c1 [BU-239],0,,0,0,,101,106,95.4,112,99.8,,,,,,97.1,101,102,102,100,99.2,104,112,104,101,,,,,,> 10,> 10,> 10,,
CCCCCCNC(=O)n1cc(F)c(=O)[nH]c1=O [Carmofur],0,1.4,1.5,3.7,3.1,89.8,102,100,101,93.8,104,99.4,102,102,67.1,106,92,94.1,91.7,74.1,108,104,102,85.5,63.6,103,96.5,102,94.8,55.9,> 10,,,,
C[C@@H]1C[C@H]2[C@@H]3CCC4=CC(=O)C=C[C@]4(C)[C@@]3(F)[C@@H](O)C[C@]2(C)[C@@]1(O)C(=O)COP(=O)(O)O [DEXAMETHASONE SODIUM PHOSPHATE],0,,0,0,0,106,107,89.9,105,90,,,,,,95.9,88,99.7,96.2,97.5,111,108,100,97.8,93.6,99.8,98.8,97.7,95.8,95.7,> 10,> 10,> 10,> 10,
C[C@H](N)C(=O)O [L-alanine],0.2,0,0,,0,102,94.3,99.6,106,84.2,104,103,106,98.9,104,102,96.6,99.4,106,105,,,,,,94.5,102,104,105,96.3,> 10,> 10,,> 10,> 10
CN(C)CCOc1cc(-c2cn[nH]c2)ccc1NC(=O)C1COc2ccccc2O1 (stereo unspecified) [SR-3677],0,3.3,0,1.1,0.8,102,93.4,99.4,148,134,96.5,95.9,95.7,81.4,68.8,100,95.6,105,105,94.9,99.3,108,101,86,88.4,99.8,101,95.6,98.6,79.6,> 10,> 10,> 10,> 10,
COc1cc2ncnc(Nc3ccc(O)c(Br)c3)c2cc1OC [WHI-P154],7.2,8.2,3.4,2.7,0.4,106,103,94.3,72.6,28.6,101,98.4,82.8,68,35.6,95.8,96.6,89.8,83.6,68.8,108,102,101,89.7,70,103,101,99.5,93.1,86.3,1.29,,,> 10,0.642
